# Values of other authors in patent publication US12233048B2 (Société des Produits Nestlé S.A., priority 2022, dated 2025).
smiles,measurement,setting,value
"COc1ccc2[nH]cc(CCNC(C)=O)c2c1 [melatonin, N-acetyl-5-methoxytryptamine]",time after ingestion for blood plasma concentration to reach its peak,after ingestion,more than 30 minutes
same,bioavailability,exogenous melatonin,poor and highly variable
